Where “and” joins values, the source holds several entries; their conditions need not be identical. Equal values may be shown once.
Assays:
[1] = tested on: Alopec. myosur.; experiment: preemergence treatment in the greenhouse, % damage; format: in vivo
Procedure, shortened: (§1)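 Preemergence: active sprayed onto the soil surface immediately after sowing; pots sprinkler-irrigated and covered with transparent hoods until plants rooted. Postemergence: unhooded plants sprayed at 3–10 cm. Both run 4–6 weeks in greenhouse; damage 0 = none, 100 = no emergence or total kill of visible parts.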

[2] = tested on: Amar. retro.; experiment: preemergence treatment in the greenhouse, % damage; format: in vivo
Procedure, shortened: as §1

[3] = tested on: Bromus spp.; experiment: preemergence treatment in the greenhouse, % damage; format: in vivo
Procedure, shortened: as §1

[4] = tested on: Chrys. seget.; experiment: preemergence treatment in the greenhouse, % damage; format: in vivo
Procedure, shortened: as §1

[5] = tested on: Cyp. diff.; experiment: preemergence treatment in the greenhouse, % damage; format: in vivo
Procedure, shortened: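 Plants in humus-poor sandy loam (~1.5%) received kg/ha doses of active as aqueous spray. Preemergence sprays preceded irrigation and hooding until rooting; postemergence sprays, without hoods, hit 3–10 cm plants. Injury was assessed 0–100 across 4–6 weeks.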

[6] = tested on: Echin. c.g.; experiment: preemergence treatment in the greenhouse, % damage; format: in vivo
Procedure, shortened: as §1

[7] = tested on: Euph. gen.; experiment: preemergence treatment in the greenhouse, % damage; format: in vivo
Procedure, shortened: as §1

[8] = tested on: Matric. spp.; experiment: preemergence treatment in the greenhouse, % damage; format: in vivo
Procedure, shortened: as §1

[9] = tested on: Poa annua; experiment: preemergence treatment in the greenhouse, % damage; format: in vivo
Procedure, shortened: as §1

[10] = tested on: Setaria spp.; experiment: preemergence treatment in the greenhouse, % damage; format: in vivo
Procedure, shortened: as §1

[11] = tested on: Solanum nigrum; experiment: preemergence treatment in the greenhouse, % damage; format: in vivo
Procedure, shortened: as §1

[12] = tested on: Sorgh. halep.; experiment: preemergence treatment in the greenhouse, % damage; format: in vivo
Procedure, shortened: as §1

[13] = tested on: Stell. med.; experiment: preemergence treatment in the greenhouse, % damage; format: in vivo
Procedure, shortened: as §1

[14] = tested on: Zea mays; experiment: preemergence treatment in the greenhouse, % damage; format: in vivo
Procedure, shortened: as §1

[15] = tested on: Glyc. max; experiment: preemergence treatment in the greenhouse, % damage; format: in vivo, Glycine max; settings: 0.25 kg/ha
Procedure, shortened: as §1

[16] = tested on: Gossyp. hirs.; experiment: preemergence treatment in the greenhouse, % damage; format: in vivo, Gosspyium hirsutum
Procedure, shortened: as §1

[17] = tested on: Cyper. escul.; experiment: preemergence treatment in the greenhouse, % damage; format: in vivo, Cyperus esculentus
Procedure, shortened: as §1

[18] = tested on: Sorgh. bicol.; experiment: preemergence treatment in the greenhouse, % damage; format: in vivo, Sorghum bicolor
Source text: (§2) The vessels employed were plastic flowerpots having a volume of 300 cm^3; the substrate was a sandy loam containing about 1.5% humus. The seeds of the test plants (see Table 1) were sown shallow, and separated according to species. In the case of Cyperus esculentus, pregerminated tubers were planted. In the preemergence treatment, the active ingredients were then immediately applied to the surface of the soil. They were suspended or emulsified in water as the vehicle, and sprayed through atomizing nozzles. After the agents had been applied, the vessels were lightly sprinkler-irrigated to set germination and growth going, and to activate the chemical agents. The vessels were then covered with transparent plastic hoods until the plants had taken root. This cover ensured uniform germination of the test plants (to the extent that this was not impaired by the chemicals), and prevented readily volatile substances from evaporating.
(§3) For postemergence treatment, the plants were first grown to a height of from 3 to 10 cm, depending on their habit, before treated. Hoods were not placed on the pots. The experiments were set up in the greenhouse, hotter areas (25° to 40° C.) being preferred for heat-loving species, and 15° to 30° C. for plants from moderate climates. The experiments were carried out for from 4 to 6 weeks. During this period the plants were tended and their reaction to the various treatments was assessed. The following tables contain the substances investigated, the application rates in kg/ha of active ingredient, and the test plant species. Assessments were made on a 0 to 100 scale, 0 denoting no damage or normal emergence, and 100 denoting no emergence or complete destruction of at least the visible plant parts.

[19] = tested on: Alopec. myosur.; experiment: preemergence application in the open, % damage; format: in vivo; settings: 2.0 kg/ha
Method: (§4) The experiments were carried out on small plots. The soil was a sandy loam having a pH of from 5 to 6 and containing from 1 to 1.5% humus. The treatment was preemergence, the active ingredients being applied immediately or at the latest 3 days after sowing. The crop plants were sown in rows. The weed flora was made up of the most widely varying species and was natural; the weed flora depended on the time of the year and in part on the crop (e.g., spring-germinating, summer-germinating). The substances were emulsified or suspended in water as the vehicle, and applied by means of a motor-driven plot spray mounted on a hitch. When no rain fell, the plots were watered to ensure germination and growth of the crop plants and weeds. All the experiments were run for several weeks. Over this period, assessments were made at certain intervals on the 0 to 100 scale.

[20] = tested on: Amar. retro.; experiment: preemergence application in the open, % damage; format: in vivo; settings: 1,0 kg/ha
Method: as §4

[21] = tested on: Anth./Matric.; experiment: preemergence application in the open, % damage; format: in vivo; settings: 2.0 kg/ha
Method: as §4

[22] = tested on: Brassica napus; experiment: preemergence application in the open, % damage; format: in vivo; settings: 2.0 kg/ha
Method: as §4

[23] = tested on: Chenop. spp.; experiment: preemergence application in the open, % damage; format: in vivo
Method: as §4

[24] = tested on: Echin. c.g.; experiment: preemergence application in the open, % damage; format: in vivo
Method: as §4

[25] = tested on: Galins. spp.; experiment: preemergence application in the open, % damage; format: in vivo
Method: as §4

[26] = tested on: Stellaria media; experiment: preemergence application in the open, % damage; format: in vivo; settings: 2.0 kg/ha
Method: as §4

[27] = tested on: Glyc. max; experiment: preemergence application in the open, % damage; format: in vivo, Glycine max
Method: as §4

[28] = tested on: Alopec. myosur.; experiment: postemergence application in the greenhouse, % damage; format: in vivo
Source text: as §2, §3

[29] = tested on: Avena fat.; experiment: as above; format: in vivo
Source text: as §2, §3

[30] = tested on: Chrys. seget.; experiment: as above; format: in vivo
Source text: as §2, §3

[31] = tested on: Matric. spp.; experiment: as above; format: in vivo
Source text: as §2, §3

[32] = tested on: Setaria spp.; experiment: as above; format: in vivo
Source text: as §2, §3

[33] = tested on: Stell. med.; experiment: as above; format: in vivo
Source text: as §2, §3

[34] = tested on: Cyper. escul.; experiment: as above; format: in vivo, Cyperus esculentus
Source text: as §2, §3

[35] = one value printed for two rates (0.25 0.5 kg/ha)

## CCc1cccc(CC)c1N(COC)C(=O)CCl [prior art, 2-chloro-2',6'-diethyl-N-methoxymethyl-acetanilide, reference compound]
[1]; 0.25 kg/ha
  % damage: 40%
[1]; 0.5 kg/ha
  % damage: 80%
[1]; 1.0 kg/ha
  % damage: 80%
[2]; 0.25 kg/ha
  % damage: 72% and 80%
[2]; 0.5 kg/ha
  % damage: 100% and 80%
[2]; 2.0 kg/ha
  % damage: 100% and 50%
[2]; [35]
  % damage: 75%
[3]; 0.125 kg/ha
  % damage: 50%
[3]; 0.25 kg/ha
  % damage: 80% and 88%
[3]; 0.5 kg/ha
  % damage: 90%
[3]; 1.0 kg/ha
  % damage: 50%
[3]; 2.0 kg/ha
  % damage: 70%
[4]; 0.25 kg/ha
  % damage: 30%
[4]; 0.5 kg/ha
  % damage: 0%
[5]; 0.125 kg/ha
  % damage: 65%
[5]; 0.25 kg/ha
  % damage: 70% and 100%
[5]; 0.5 kg/ha
  % damage: 100%
[5]; 1.0 kg/ha
  % damage: 100%
[5]; [35]
  % damage: 65%
[6]; 0.25 kg/ha
  % damage: 95%
[6]; 0.5 kg/ha
  % damage: 65% and 100%
[6]; 2.0 kg/ha
  % damage: 95% and 90%
[7]; 0.5 kg/ha
  % damage: 25% and 20% and 30%
[7]; 1.0 kg/ha
  % damage: 45% and 50%
[7]; 2.0 kg/ha
  % damage: 100%
[8]; 0.25 kg/ha
  % damage: 50%
[8]; 0.5 kg/ha
  % damage: 80%
[8]; 1.0 kg/ha
  % damage: 90%
[9]; 0.125 kg/ha
  % damage: 80%
[9]; 0.5 kg/ha
  % damage: 15%
[10]; 0.25 kg/ha
  % damage: 70%
[10]; 0.5 kg/ha
  % damage: 60% and 90%
[10]; 1.0 kg/ha
  % damage: 90% and 95% and 100%
[10]; 2.0 kg/ha
  % damage: 100%
[11]; 0.25 kg/ha
  % damage: 50%
[11]; 0.5 kg/ha
  % damage: 80% and 95%
[11]; 1.0 kg/ha
  % damage: 100%
[11]; 2.0 kg/ha
  % damage: 100%
[12]; 0.125 kg/ha
  % damage: 40%
[12]; 0.25 kg/ha
  % damage: 38% and 50% and 30%
[12]; 0.5 kg/ha
  % damage: 50% and 40%
[12]; 1.0 kg/ha
  % damage: 70%
[13]; 0.25 kg/ha
  % damage: 20%
[13]; 0.5 kg/ha
  % damage: 70%
[13]; 1.0 kg/ha
  % damage: 70%
[14]; 1.0 kg/ha
  % damage: 0%
[14]; 2.0 kg/ha
  % damage: 0%
[15]
  % damage: 10%
[16]; 0.25 kg/ha
  % damage: 0%
[16]; 0.5 kg/ha
  % damage: 0%
[16]; 1.0 kg/ha
  % damage: 20% and 10%
[16]; 2.0 kg/ha
  % damage: 40%
[17]; 0.5 kg/ha
  % damage: 40%
[17]; 1.0 kg/ha
  % damage: 50%
[17]; 2.0 kg/ha
  % damage: 60%
[18]; 1.0 kg/ha
  % damage: 0%
[18]; 2.0 kg/ha
  % damage: 0%
[19]
  % damage: 65%
[20]
  % damage: 80%
[21]
  % damage: 53%
[22]
  % damage: 5%
[23]; 0,1 kg/ha
  % damage: 10%
[23]; 1,0 kg/ha
  % damage: 13%
[24]; 0,1 kg/ha
  % damage: 65%
[24]; 1,0 kg/ha
  % damage: 73%
[25]; 0,1 kg/ha
  % damage: 30%
[25]; 1,0 kg/ha
  % damage: 55%
[26]
  % damage: 15%
[27]; 0,1 kg/ha
  % damage: 0%
[27]; 1,0 kg/ha
  % damage: 0%
[28]; 1.0 kg/ha
  % damage: 60%
[28]; 2.0 kg/ha
  % damage: 60%
[29]; 1.0 kg/ha
  % damage: 50%
[29]; 2.0 kg/ha
  % damage: 70%
[30]; 1.0 kg/ha
  % damage: 15%
[30]; 2.0 kg/ha
  % damage: 15%
[31]; 1.0 kg/ha
  % damage: 50%
[31]; 2.0 kg/ha
  % damage: 50%
[32]; 1.0 kg/ha
  % damage: 68%
[32]; 2.0 kg/ha
  % damage: 68%
[33]; 1.0 kg/ha
  % damage: 0%
[33]; 2.0 kg/ha
  % damage: 30%
[34]; 1.0 kg/ha
  % damage: 42%
[34]; 2.0 kg/ha
  % damage: 55%

Reference: patent US4593104A, “2-halo-N-(azole-1-yl-methyl)-substituted acetanilides” (BASF Aktiengesellschaft, priority 1976, dated 1986)
